This passage reports IC50 results from US12492188B2, “1H-benzo[D]imidazole derivatives as TLR9 inhibitors for the treatment of fibrosis” (BRISTOL-MYERS SQUIBB COMPANY, priority 2020, dated 2025).

Format in all cases: cell-based
The target of one assay is T1, human TLR9 (Homo sapiens, UniProt Q9NR96).
T1 construct: host or cells: HEK-Blue cells (HEK293-derived reporter line)
T1 sequence (Q9NR96 26-1032): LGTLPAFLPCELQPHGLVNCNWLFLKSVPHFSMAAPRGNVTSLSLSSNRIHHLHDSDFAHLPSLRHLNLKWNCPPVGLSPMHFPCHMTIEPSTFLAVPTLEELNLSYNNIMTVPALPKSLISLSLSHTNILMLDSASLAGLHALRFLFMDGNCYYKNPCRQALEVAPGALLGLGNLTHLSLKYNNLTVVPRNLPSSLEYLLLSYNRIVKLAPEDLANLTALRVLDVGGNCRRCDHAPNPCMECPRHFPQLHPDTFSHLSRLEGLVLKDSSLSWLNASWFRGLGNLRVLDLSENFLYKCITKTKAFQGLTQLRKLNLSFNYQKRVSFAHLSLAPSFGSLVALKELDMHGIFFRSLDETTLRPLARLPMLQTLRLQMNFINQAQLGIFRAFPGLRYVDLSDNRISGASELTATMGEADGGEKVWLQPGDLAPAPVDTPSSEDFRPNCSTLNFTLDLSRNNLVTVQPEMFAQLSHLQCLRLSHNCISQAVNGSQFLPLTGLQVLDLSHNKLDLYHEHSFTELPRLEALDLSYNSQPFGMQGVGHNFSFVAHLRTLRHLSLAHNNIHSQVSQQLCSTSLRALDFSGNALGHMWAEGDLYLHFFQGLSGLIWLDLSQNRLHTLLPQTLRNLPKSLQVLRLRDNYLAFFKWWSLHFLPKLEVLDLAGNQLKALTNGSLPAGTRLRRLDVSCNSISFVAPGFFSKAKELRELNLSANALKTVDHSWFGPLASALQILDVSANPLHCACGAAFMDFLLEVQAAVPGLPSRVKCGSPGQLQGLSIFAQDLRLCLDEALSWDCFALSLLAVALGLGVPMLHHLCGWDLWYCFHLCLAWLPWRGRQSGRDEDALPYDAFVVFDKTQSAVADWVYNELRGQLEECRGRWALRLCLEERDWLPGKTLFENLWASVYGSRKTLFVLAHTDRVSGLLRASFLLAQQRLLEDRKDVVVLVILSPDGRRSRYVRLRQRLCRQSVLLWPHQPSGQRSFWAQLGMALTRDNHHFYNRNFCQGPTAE
The experiment in a line: TLR9 inhibition reporter assay (HEK-Blue cells, secreted embryonic alkaline phosphatase reporter). In outline:
(§1)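 Read-out is SEAP colour from HEK-Blue Detection medium after 22 h at 37 °C, converted to percent inhibition between agonist-plus-DMSO and reference-inhibitor wells. Receptor-overexpressing HEK-Blue cells received compound over 0.05 nM–50 μM for 30 min before agonist: gardiquimod 7.5 μM for TLR7, R848 15.9 μM for TLR8, ODN2006 5 nM for TLR9.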
Background: In a reporter assay the amount or activity of a reporter protein is the signal.

The target of another assay is T2, human TLR7 (Homo sapiens, UniProt Q9NYK1).
T2 construct: host or cells: HEK-Blue cells (HEK293-derived reporter line)
T2 sequence (Q9NYK1 27-1049): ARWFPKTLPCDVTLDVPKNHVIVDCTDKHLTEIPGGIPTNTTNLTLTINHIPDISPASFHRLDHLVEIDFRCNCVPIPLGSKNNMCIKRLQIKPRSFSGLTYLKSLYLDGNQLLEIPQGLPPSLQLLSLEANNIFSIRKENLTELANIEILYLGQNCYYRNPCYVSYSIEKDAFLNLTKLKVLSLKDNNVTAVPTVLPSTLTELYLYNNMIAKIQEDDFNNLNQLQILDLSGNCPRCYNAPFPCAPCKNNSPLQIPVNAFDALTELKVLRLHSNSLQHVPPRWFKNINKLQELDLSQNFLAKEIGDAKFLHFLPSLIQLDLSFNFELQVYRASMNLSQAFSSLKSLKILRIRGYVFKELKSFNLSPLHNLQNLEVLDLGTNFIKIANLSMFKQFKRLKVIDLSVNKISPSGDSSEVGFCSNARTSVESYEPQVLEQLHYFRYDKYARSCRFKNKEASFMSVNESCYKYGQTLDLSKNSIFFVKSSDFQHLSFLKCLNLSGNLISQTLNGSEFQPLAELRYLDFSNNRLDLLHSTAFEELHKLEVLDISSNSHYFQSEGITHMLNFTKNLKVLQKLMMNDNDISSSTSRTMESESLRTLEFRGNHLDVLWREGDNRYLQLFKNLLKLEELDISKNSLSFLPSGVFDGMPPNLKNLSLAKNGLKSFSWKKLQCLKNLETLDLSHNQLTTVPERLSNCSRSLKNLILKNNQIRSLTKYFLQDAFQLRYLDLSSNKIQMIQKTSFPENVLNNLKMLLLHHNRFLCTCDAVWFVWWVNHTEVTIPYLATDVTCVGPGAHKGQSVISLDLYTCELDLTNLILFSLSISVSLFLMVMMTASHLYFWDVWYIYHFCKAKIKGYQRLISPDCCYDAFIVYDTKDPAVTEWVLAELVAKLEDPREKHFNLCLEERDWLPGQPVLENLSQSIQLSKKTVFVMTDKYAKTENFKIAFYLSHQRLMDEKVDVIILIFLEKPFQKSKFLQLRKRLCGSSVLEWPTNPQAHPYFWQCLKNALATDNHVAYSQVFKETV
The experiment in a line: TLR7 inhibition reporter assay (HEK-Blue cells, secreted embryonic alkaline phosphatase reporter). The note with it: HEK-Blue cells overexpressing human TLR7, stimulated with gardiquimod 7.5 μM; read-out: TLR 7 IC50. In outline: as §1

The next assay has as its target T3, human TLR8 (Homo sapiens, UniProt Q9NR97).
T3 construct: host or cells: HEK-Blue cells (HEK293-derived reporter line)
T3 sequence (Q9NR97 27-1041): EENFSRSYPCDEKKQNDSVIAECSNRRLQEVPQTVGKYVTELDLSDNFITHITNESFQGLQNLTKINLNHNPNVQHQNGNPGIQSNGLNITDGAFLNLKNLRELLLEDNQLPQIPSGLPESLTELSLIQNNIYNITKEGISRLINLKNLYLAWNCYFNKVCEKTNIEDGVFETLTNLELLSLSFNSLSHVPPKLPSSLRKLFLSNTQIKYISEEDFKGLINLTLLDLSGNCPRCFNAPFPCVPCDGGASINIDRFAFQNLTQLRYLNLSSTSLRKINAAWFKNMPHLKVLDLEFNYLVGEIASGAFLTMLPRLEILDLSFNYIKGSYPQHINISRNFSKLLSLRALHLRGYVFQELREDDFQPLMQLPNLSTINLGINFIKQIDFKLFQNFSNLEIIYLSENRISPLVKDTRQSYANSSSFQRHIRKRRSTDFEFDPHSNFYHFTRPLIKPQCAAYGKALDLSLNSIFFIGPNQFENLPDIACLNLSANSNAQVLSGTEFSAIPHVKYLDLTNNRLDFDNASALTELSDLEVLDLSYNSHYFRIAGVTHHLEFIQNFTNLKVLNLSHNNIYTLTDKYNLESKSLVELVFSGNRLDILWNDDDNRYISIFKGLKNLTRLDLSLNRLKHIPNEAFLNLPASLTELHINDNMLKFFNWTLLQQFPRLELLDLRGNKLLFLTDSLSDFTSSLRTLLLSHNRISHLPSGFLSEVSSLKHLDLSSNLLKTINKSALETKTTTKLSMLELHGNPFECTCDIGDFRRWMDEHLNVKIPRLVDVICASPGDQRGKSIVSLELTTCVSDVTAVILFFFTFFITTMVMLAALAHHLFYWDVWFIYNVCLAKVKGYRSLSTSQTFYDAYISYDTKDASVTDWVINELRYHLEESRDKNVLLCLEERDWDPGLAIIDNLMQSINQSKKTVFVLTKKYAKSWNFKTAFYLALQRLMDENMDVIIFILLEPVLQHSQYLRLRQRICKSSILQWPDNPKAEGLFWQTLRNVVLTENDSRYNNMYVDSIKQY
The experiment in a line: TLR8 inhibition reporter assay (HEK-Blue cells, secreted embryonic alkaline phosphatase reporter). The conditions noted are these: HEK-Blue cells overexpressing human TLR8, stimulated with R848 15.9 μM; read-out: TLR 8 IC50. In outline: as §1

[1] abbreviates: HEK-Blue cells overexpressing human TLR9, stimulated with ODN2006 5 nM, 22 hour incubation, reporter readout.
Setting [2] is: HEK-Blue cells overexpressing human TLR9, stimulated with ODN2006 5 nM, read-out: TLR 9 IC50.
Where [3] appears, read: HEK-Blue human TLR9 reporter cells.

Structures are written as SMILES. Like-named read-outs stand apart in the source and are kept apart here. Some results are limits rather than exact numbers.

For orientation: IC50 means the point on the concentration scale where inhibition reaches its midpoint. Consider `CC(C)N1CCCC(N2CCC(c3ccc4nc(-c5ccc(S(C)(=O)=O)cc5)n(C)c4c3F)CC2)CC1` (single isomer, unassigned) [Example 114, 7-fluoro-6-(1-(1-isopropylazepan-4-yl)piperidin-4-yl)-1-methyl-2-(4-(methylsulfonyl)phenyl)-1H-benzo[d]imidazole], for which the half-inhibitory concentration (IC50) on human TLR9 (setting [1]) is 13 nM; at human TLR7 it was more than 50000 nM; at human TLR8, 16700 nM.

`COc1cc(-c2nc3c(C)cc(C4CCN(C5CC6CCC(C5)N6C5CC5)CC4)cc3n2C)cn2ncnc12` (centres unmarked) [Example 354, 6-(6-(1-(8-cyclopropyl-8-azabicyclo[3.2.1]octan-3-yl)piperidin-4-yl)-1,4-dimethyl-1H-benzo[d]imidazol-2-yl)-8-methoxy-[1,2,4]triazolo[1,5-a]pyridine]: the IC50 on human TLR9 (setting [2]) worked out at 85 nM; at human TLR9 (setting [3]), 85 nM; at human TLR7, 7500 nM; on human TLR8 it was 700 nM.

Turning to `Cc1cc(C2CCN(C3CC4CCC(C3)N4CC3CC3)CC2)cc2[nH]c(-c3ccc(S(C)(=O)=O)cc3)nc12` (centres unmarked) [Example 335, 6-(1-(8-(cyclopropylmethyl)-8-azabicyclo[3.2.1]octan-3-yl)piperidin-4-yl)-4-methyl-2-(4-(methylsulfonyl)phenyl)-1H-benzo[d]imidazole], the IC50 on human TLR9 (setting [2]) was 130 nM; on human TLR9 (setting [3]), 130 nM; on human TLR7, more than 50000 nM; at human TLR8 it was more than 50000 nM.

Take `Cc1cc(C2CCN(C3CCCN(C4CCOCC4)CC3)CC2)cc2c1nc(-c1ccc(S(C)(=O)=O)cc1)n2C` (single isomer, unassigned) [Example 306, 1,4-dimethyl-2-(4-(methylsulfonyl)phenyl)-6-(1-(1-(tetrahydro-2H-pyran-4-yl)azepan-4-yl)piperidin-4-yl)-1H-benzo[d]imidazole]: the IC50 was 17 nM on human TLR9 (setting [2]), 17 nM on human TLR9 (setting [3]), 9500 nM at human TLR7 and more than 50000 nM on human TLR8.

Take `Cc1cc(C2CCN(C3CC4CCC(C3)N4C(C)C)CC2)cc2[nH]c(-c3ccc(S(C)(=O)=O)cc3)nc12` (centres unmarked) [Example 332, 6-(1-(8-isopropyl-8-azabicyclo[3.2.1]octan-3-yl)piperidin-4-yl)-4-methyl-2-(4-(methylsulfonyl)phenyl)-1H-benzo[d]imidazole]: the IC50 at human TLR9 (setting [2]) is 172 nM; at human TLR9 (setting [3]), 170 nM; on human TLR7 it was more than 50000 nM; on human TLR8, more than 50000 nM.

As for `COc1ccc(-c2nc3cc(C4CCN(C5CCN(C(C)C)CC5)CC4)ccc3n2CC(F)F)cc1OC` [Example 7, 1-(2,2-difluoroethyl)-2-(3,4-dimethoxyphenyl)-5-(1′-isopropyl-[1,4′-bipiperidin]-4-yl)-1H-benzo[d]imidazole], the IC50 against human TLR9 (setting [1]) was 280 nM; at human TLR9 (setting [2]), 283 nM; on human TLR7 it was 5700 nM; on human TLR8, more than 50000 nM.

As to `Cc1ccc(CN2CCC(c3cc(C)c4nc(-c5ccc(S(C)(=O)=O)cc5)n(C)c4c3)CC2)cn1` [Example 419, 1,4-dimethyl-6-(1-((6-methylpyridin-3-yl)methyl)piperidin-4-yl)-2-(4-(methylsulfonyl)phenyl)-1H-benzo[d]imidazole], the half-maximal inhibitory concentration (IC50) against human TLR9 (setting [1]) amounted to 2100 nM; on human TLR9 (setting [2]) it was 2140 nM; on human TLR7 it was 2300 nM; at human TLR8, 8400 nM.

As to `CC(C)N1CCC(N2CCC(c3ccc4nc(-c5ccc(S(C)(=O)=O)cc5)[nH]c4c3F)CC2)CC1` [Example 87, 7-fluoro-6-(1′-isopropyl-[1,4′-bipiperidin]-4-yl)-2-(4-(methylsulfonyl)phenyl)-1H-benzo[d]imidazole], the IC50 at human TLR9 (setting [1]) was 950 nM; at human TLR7, more than 50000 nM; at human TLR8, more than 50000 nM.

Take `CCN(C)C1CCN(c2ccc(-c3cc(C)c4nc(-c5ccc(S(C)(=O)=O)cc5)n(C)c4c3)cc2)CC1` [Example 386, 1-(4-(1,4-dimethyl-2-(4-(methylsulfonyl)phenyl)-1H-benzo[d]imidazol-6-yl)phenyl)-N-ethyl-N-methylpiperidin-4-amine]: the IC50 is 270 nM against human TLR9 (setting [1]), 267 nM at human TLR9 (setting [2]), 1700 nM on human TLR7 and 4400 nM at human TLR8.

Turning to `COc1ccc(-c2nc3c(C)cc(C4CC5CCC(C4)N5C4CCN(C5CC5)CC4)cc3n2C)cc1OC` (centres unmarked) [Example 51, 6-(8-(1-cyclopropylpiperidin-4-yl)-8-azabicyclo[3.2.1]octan-3-yl)-2-(3,4-dimethoxyphenyl)-1,4-dimethyl-1H-benzo[d]imidazole], the IC50 at human TLR9 (setting [1]) was 130 nM; at human TLR9 (setting [2]), 130 nM; on human TLR7, 20000 nM; at human TLR8 it was more than 50000 nM.
